What was measured:
[1] = system: OVA sensitized and challenged mice, lung sections; assay: Histological analysis of lung inflammation in mouse model of asthma; assay type: in vivo; conditions: H&E lung sections
Experimental: To determine the effect of Compound I on airway inflammation, histopathological analysis of formalin fixed, paraffin embedded lung sections was performed. The excised lung portion was fixed in 10% buffered formalin. The fixed, paraffin embedded tissue were sectioned into 4 μm sections and stained with Hematoxylin & Eosin (H&E) to assess inflammation

[2] = Determination of pharmacokinetics in mice; assay type: in vivo, swiss mice
Experimental: Treatment of animal: Healthy swiss mice of both the sexes (25-30) were used. The animals were kept (3/cage) under controlled conditions (temp 26±2° C.; relative humidity 50±5%; 12 h light/dark cycle) and maintained on pelleted rodent diet […]. Ashirwad Industries Ltd. Chandigarh, India). Water was provided ad libitum. Compound I was solubilised in 2% gum acacia by trituration and diluted with normal saline to obtained desired concentration. The compound was administered orally (20 mg/kg BW) or via intravenous route (10 mg/kg bw).
Sampling time: Blood samples were collected at 0, 5, 15 and 30 min, and 1, 2, 4, 6, 8, 16 and 24 hrs post-administration after oral/iv route in pre-labeled heparinised tubes and centrifuged (3500 rpm×10 minutes) to obtain the plasma. A total of 6 animals were used per time point.
(i) Aliquots of plasma (250 ul) were mixed with ethyl acetate (3 ml), vortexed for two minutes (2500 rpm) and centrifuged at 5000 rpm for 10 min. The organic layer was collected and evaporated to dryness using solvent evaporator (Model: SPD 111V, Thermo Electron Corporation, MA). The dried samples were reconstituted in mobile phase for HPLC analysis.
(2) Calibration standards were prepared from aliquots of plasma collected from untreated animals which were spiked with molecule I (0.25 μg-10 μg/ml). […] The extraction efficiency of the molecule from plasma matrix was 90-93%.
HPLC determinations HPLC determinations were done on Thermofinningan chromatograph (Model: SpectraSystem SCM 1000 equipped with quaternary pump P-4000; autosampler AS 3000; UV 6000 LP): diode array detector). Molecule D8 was run under the following conditions:
Column: RP-8 (5 um); Mobile Phase: Acetonitrile:Water (51:49); Wavelength: 272 nm Flow Rate: 1 ml/min; Retention time: 8.035 min; The lower limit of detection (LOD): 3.5 ng/ml; limit of quantitation (LOQ): 10 ng/ml.
Bioavailability indices. A concentration-time curve for Molecule D8 was established and pharmacokinetic parameters (Cmax, Tmax, AUC0-24, Clerance (Cl) and Volume of Distribution (vd) were determined by using a software (PK Solutions version 2.0; Summit Research Services, USA).
Absolute bioavailability was determined using the following formula: AUCoral×doseiv/AUCv×Doseoral.

mice = assay: Charcoal meal transit time; assay type: in vivo
Experimental: […] charcoal suspension (20 ml/kg prepared as a 5% solution in 10% gum acacia) was administered perorally 60 min after D8 administration (perorally). After 30 min, charcoal meal administration small intestines were excised and aligned parallel to a ruler. Ratio of the distance traveled by the charcoal meal to the total length of the small intestine was determined for the control (untreated) and Compound I treated mice [Ali, B. H. Bashir, A A. The effect of alpha 2-receptor agonists and antagonists on gastro-intestinal transit time. Clinical and Experimental Pharmacology and Physiology, 20 (1993) 1-6].

Male wistar rats = assay: Blood pressure, heart rate and respiratory rate by telemetry; assay type: in vivo; design: RR: unit not given beside the values; conditions: for RR / HR / DBP / SBP: 50 mg/kg i.v.; for HR: in bpm (unit assumed); for DBP / SBP: in mmHg (unit assumed)
Experimental: Male wistar rats of approximately 6 months of age were anaesthetised with a mixture of ketamine (40 mg/kg) and xylazine (5 mg/kg) and fitted with TL11M2-C50PXT telemetry transmitters (Data Sciences Intl., St. Paul, Minn., USA) in the peritoneal cavity by performing surgery. Experiments were performed 15 days after surgery. Individual rats were placed in plastic cage on top of a receiver (RLA 2000, Data Science) for the measurement of systolic BP, diastolic BP, Heart rate and respiratory rate. The signals from the transmitters were received by two RLA 2000 receivers and transmitted via a Data Exchange Matrix to a Dataquest PCI card CQ 2240 in the computer. The data were interpreted by the Dataquest program A.R.T. version 2.2 Gold Version.

Solubility in water = assay type: physicochemical
Plasma binding = assay type: in vitro ADME

SMILES: COc1cc(C=O)cc2c1[nH]c1ccccc12 [Compound I, 1-methoxy-3-formyl-9H carbazole]
- perivascular and peribronchial inflammation [1]: reduced both perivascular and peribronchial inflammation in a dose dependent manner
- amounts detected in urine ([2]; after 24 hrs): negligible amounts
- plasma clearance rate ([2]; mouse, in vivo): good plasma clearance rate
- volume of distribution ([2]; mouse, in vivo): volume of distribution is high
- intact drug stays in the circulation ([2]; oral administration): ≤ 12 h
- % Transport (Mean ± SEM) (mice; 12.5 mg/kg p.o.): 74.15 ± 3.4%
- % Transport (Mean ± SEM) (mice; 25 mg/kg p.o.): 76.6 ± 6.7%
- % Transport (Mean ± SEM) (mice; 50 mg/kg p.o.): 77.12 ± 1.49%
- change in charcoal powder transporting ratio vs control (mice; 12.5, 25 and 50 mg/kg): no significant change in charcoal powder transporting ratio
- RR (Male wistar rats; 0 mins): 89.4 ± 1.4
- HR (Male wistar rats; 0 mins): 242.1 ± 9.7
- DBP (Male wistar rats; 0 mins): 71.7 ± 10.2
- SBP (Male wistar rats; 0 mins): 112 ± 2.89
- RR (Male wistar rats; 1 hr): 85.77 ± 8.9
- HR (Male wistar rats; 1 hr): 309.1 ± 45.9
- DBP (Male wistar rats; 1 hr): 82.1 ± 4.5
- SBP (Male wistar rats; 1 hr): 115.4 ± 3.6
- RR (Male wistar rats; 2 hr): 89.5 ± 2.56
- HR (Male wistar rats; 2 hr): 261 ± 13.8
- DBP (Male wistar rats; 2 hr): 77.5 ± 6.07
- SBP (Male wistar rats; 2 hr): 114.5 ± 2.8
- RR (Male wistar rats; 3 hr): 84.5 ± 3.5
- HR (Male wistar rats; 3 hr): 272.7 ± 17.5
- DBP (Male wistar rats; 3 hr): 78.5 ± 8.1
- SBP (Male wistar rats; 3 hr): 110.2 ± 4.5
- RR (Male wistar rats; 4 hr): 96.3 ± 2.1
- HR (Male wistar rats; 4 hr): 273.1 ± 17.06
- DBP (Male wistar rats; 4 hr): 75.9 ± 8.2
- SBP (Male wistar rats; 4 hr): 108.7 ± 5.2
- change in blood pressure, heart rate and respiratory rate (Male wistar rats; rats, before and after treatment): No significant change in blood pressure, heart rate and respiratory rate
- solubility in water (Solubility in water): insoluble in water
- plasma binding (Plasma binding): high plasma binding

Reference: patent US8519154B2, “Method for treatment of bronchial asthma” (Council of Scientific & Industrial Research, priority 2011, dated 2013)
